Laboratory results reported in US9657062B2, “Ghrelin analogues” (Zealand Pharma A/S, priority 2012, dated 2017).
Where a SMILES comes first, the peptide text is derived from it. [ ]: non-standard residue; d: D form. The star is where a group is joined. Octanoyl = CCCCCCCC(=O)*; Dap = NC[C@H](N)C(=O)O; Octyl = CCCCCCCC*

Assays:
[1] = target: T1, human ghrelin receptor (GHSR1a) (Homo sapiens, UniProt Q92847); assay: Ghrelin receptor functional assay (Ca2+ induction, Fluo-4, FLIPR) in HEK293 cells stably expressing the human ghrelin receptor; format: cell-based; settings: HEK293 cell line stably expressing human GHSR1a
T1 construct: expressed in transfected cells; plasmid pIRESneo2dNGFR
T1 sequence (Q92847 whole entry): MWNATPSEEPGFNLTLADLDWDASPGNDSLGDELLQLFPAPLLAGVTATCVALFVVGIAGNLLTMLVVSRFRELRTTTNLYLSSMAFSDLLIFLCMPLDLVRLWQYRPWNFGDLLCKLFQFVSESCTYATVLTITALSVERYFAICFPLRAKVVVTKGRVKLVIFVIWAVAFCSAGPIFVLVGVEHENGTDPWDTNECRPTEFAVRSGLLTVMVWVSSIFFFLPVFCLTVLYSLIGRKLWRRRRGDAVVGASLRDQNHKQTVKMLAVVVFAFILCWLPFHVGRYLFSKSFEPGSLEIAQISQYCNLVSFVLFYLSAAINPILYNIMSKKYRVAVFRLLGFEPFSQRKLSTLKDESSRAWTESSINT
Text: To test activation of the ghrelin receptor, stable cell lines expressing the human ghrelin receptor were produced. In brief, HEK293 cells were used for transfection of the cDNA for human ghrelin receptor cloned into the transfection plasmid pIRESneo2dNGFR. […] The DNA encoding the ghrelin receptor was amplified by PCR using primers also encoding terminal restriction sites for subcloning. The ghrelin receptor was subcloned into a mammalian expression vector containing a neomycin (G418) resistance marker. The fidelity of the DNA encoding the receptor was confirmed by DNA sequencing. HEK293 cells were used for transfection of the ghrelin receptor expression plasmid. The cells were grown according to standard protocol in growth medium and transfected with the plasmids using Lipofectamin (Invitrogen) according to the manufacturer's protocol. […]
The plate with test compounds was pre-warmed before starting the measurements. […] The program measures basal level of fluorescence of Fluo-4 for 10 seconds, adds 100 μl of peptide solution to the cells and measures the change in fluorescence as a consequence of the changes in Ca^2+ concentration in the cells. The output used for calculation of activity was selected to be the maximal response (expressed as a ratio to the basal level. EC50 values) and maximal response values were determined based on these values.

[2] = system: normal chow-fed C57BL/6J male mice; assay: Effect on food intake in normal mice (HM-2 automated monitoring); format: in vivo, mouse; settings: for Accumulated FI at 6h: 300 nmol/kg s.c. once, light phase 0-6 h, modified protocol (food access re-opened 2 h after dosing)
Method: Normal chow-fed C57BL/6J male mice were used. The mice were kept in an automated food- and water-intake monitoring system (HM-2) which allows automated on-line measurements of accumulated food intake (FI) and other parameters. Food intake was monitored by the HM-2 system up to 24 h after dosing. The mice were kept 6 per cage, and each dosing group consisted of 6 animals.
In the initial experimental set-up with ghrelin as test compound, animals were allowed free access to food directly after treatment, and the resulting data for food intake are shown in FIG. 1A herein (vide infra).
In order to further investigate the “duration of action” of ghrelin and the other test compounds a new protocol was defined. In the modified protocol the gate to the food chambers was closed prior to dosing with vehicle or test compound and was re-opened 2 hours thereafter. The resulting data for food intake following dosing with ghrelin or vehicle are summarized in FIG. 1B (vide infra), while the corresponding data for food intake following dosing with each of the of the other four test compounds. (Compound 16, 22, 23 or 43 of the invention) or with vehicle are summarized in FIG. 2A (data for monitoring up to 6 hours after dosing) and FIG. 2B (data for monitoring up to 24 hours after dosing).

Compound | Accumulated FI at 6h [2] [g] | also measured
CC(C)C[C@H](NC(=O)[C@H](CCCCN)NC(=O)[C@H](C)NC(=O)[C@@H]1CCCN1C(=O)[C@@H]1CCCN1C(=O)[C@H](CCCCN)NC(=O)[C@H](CCCCN)NC(=O)[C@H](CO)NC(=O)[C@H](CCC(=O)O)NC(=O)[C@H](CCCCN)NC(=O)[C@H](CCCNC(=N)N)NC(=O)[C@H](CCC(N)=O)NC(=O)[C@H](CCC(N)=O)NC(=O)[C@H](C)NC(=O)[C@H](CCCCN)NC(=O)[C@H](CCC(N)=O)NC(=O)[C@H](Cc1c[nH]cn1)NC(=O)[C@H](CCC(=O)O)NC(=O)[C@@H]1CCCN1C(=O)[C@H](CO)NC(=O)[C@H](CC(C)C)NC(=O)[C@H](Cc1ccccc1)NC(=O)[C@H](CO)NC(=O)[C@H](CO)NC(=O)CN)C(=O)N[C@@H](CCC(N)=O)C(=O)N1CCC[C@H]1C(=O)N[C@@H](CCCNC(=N)N)C(=O)O [Compound 4, reference compound] | – | EC50 [1]: > 1000 nM
CCCCCCCC(=O)NC[C@H](NC(=O)[C@H](CO)NC(=O)[C@@H]1CCCN1)C(=O)N[C@@H](Cc1ccccc1)C(=O)N[C@@H](CC(C)C)C(=O)N[C@@H](CO)C(=O)N1CCC[C@H]1C(=O)N[C@@H](CCC(=O)O)C(=O)N[C@@H](Cc1c[nH]cn1)C(=O)N[C@@H](CO)C(=O)N[C@@H](CCCNC(=N)N)C(=O)N[C@H](C(=O)N[C@@H](CO)C(=O)N[C@@H](CO)C(=O)N[C@@H](CCCNC(=N)N)C(=O)N[C@@H](CCCCN)C(=O)N[C@@H](CCC(=O)O)C(=O)N[C@@H](CO)C(=O)N[C@@H](CCCCN)C(=O)N[C@@H](CCCCN)C(=O)N1CCC[C@H]1C(=O)N1CCC[C@H]1C(=O)N[C@@H](C)C(=O)N[C@@H](CCCCN)C(=O)N[C@@H](CC(C)C)C(=O)N[C@@H](CO)C(=O)N1CCC[C@H]1C(=O)N[C@@H](CCCNC(=N)N)C(N)=O)C(C)C [Compound 23] (H-PS[Dap](Octanoyl)FLSPEHSRVSSRKESKKPPAKLSPR-NH2) | – | Effects on FI in the 0-6 h light period ([2]; 300 nmol/kg s.c., modified protocol (FIG. 2A)): moderate effects; Effects on FI during the dark period ([2]; 300 nmol/kg s.c., modified protocol, 0-24 h monitoring (FIG. 2B)): significant effects
CCCCCCCCOC[C@H](NC(=O)[C@H](CO)NC(=O)[C@@H]1CCCN1)C(=O)N[C@@H](Cc1ccccc1)C(=O)N[C@@H](CC(C)C)C(=O)N[C@@H](CO)C(=O)N1CCC[C@H]1C(=O)N[C@@H](CCC(=O)O)C(=O)N[C@@H](Cc1c[nH]cn1)C(=O)N[C@@H](CCC(N)=O)C(=O)N[C@@H](CCCNC(=N)N)C(=O)N[C@H](C(=O)N[C@@H](CCC(N)=O)C(=O)N[C@@H](CCCNC(=N)N)C(=O)N[C@@H](CCCCN)C(=O)N[C@@H](CCC(=O)O)C(=O)N[C@@H](CO)C(=O)N[C@@H](CCCCN)C(=O)N[C@@H](CCCCN)C(=O)N1CCC[C@H]1C(=O)N1CCC[C@H]1C(=O)N[C@@H](C)C(=O)N[C@@H](CCCCN)C(=O)N[C@@H](CC(C)C)C(=O)N[C@@H](CCC(N)=O)C(=O)N1CCC[C@H]1C(=O)N[C@@H](CCCNC(=N)N)C(N)=O)C(C)C [Compound 38] (H-PSS(Octyl)FLSPEHQRVQRKESKKPPAKLQPR-NH2) | – | EC50 [1]: 0.33 nM
CCCCCCCC(=O)NC[C@H](NC(=O)[C@H](CO)NC(=O)[C@@H]1CCCN1)C(=O)N[C@@H](Cc1ccccc1)C(=O)N[C@@H](CC(C)C)C(=O)N[C@@H](CO)C(=O)N1CCC[C@H]1C(=O)N[C@@H](Cc1ccc(O)cc1)C(N)=O [Compound 42, H-PS-Dap(N-octanoyl)-FLSPY-NH2] (H-PS[Dap](Octanoyl)FLSPY-NH2) | 0.2 ± 0.08 | –
CCCCCCCCCCCCCCCC(=O)N[C@@H](CCC(=O)NCCCC[C@H](NC(=O)[C@H](CO)NC(=O)[C@H](CCC(=O)O)NC(=O)[C@H](CCCCN)NC(=O)[C@H](CCCNC(=N)N)NC(=O)[C@H](CCC(N)=O)NC(=O)[C@H](CCC(N)=O)NC(=O)[C@@H](NC(=O)[C@H](CCCNC(=N)N)NC(=O)[C@H](CCC(N)=O)NC(=O)[C@H](Cc1c[nH]cn1)NC(=O)[C@H](CCC(=O)O)NC(=O)[C@@H]1CCCN1C(=O)[C@H](CO)NC(=O)[C@H](CC(C)C)NC(=O)[C@H](Cc1ccccc1)NC(=O)[C@H](COCCCCCCCC)NC(=O)[C@H](CO)NC(=O)[C@@H]1CCCN1)C(C)C)C(=O)N[C@@H](CCCCN)C(=O)N1CCC[C@H]1C(=O)N1CCC[C@H]1C(=O)N[C@@H](C)C(=O)N[C@@H](CCCCN)C(=O)N[C@@H](CC(C)C)C(=O)N[C@@H](CCC(N)=O)C(=O)N1CCC[C@H]1C(=O)N[C@@H](CCCNC(=N)N)C(N)=O)C(=O)O [Compound 43] | 0.37 ± 0.14 | –
CCCCCCCCOC[C@H](NC(=O)[C@H](CO)NC(=O)[C@@H]1CCCN1)C(=O)N[C@@H](Cc1ccccc1)C(=O)N[C@@H](CC(C)C)C(=O)N[C@@H](CO)C(=O)N1CCC[C@H]1C(=O)N[C@@H](CCC(=O)O)C(=O)N[C@@H](Cc1c[nH]cn1)C(=O)N[C@@H](CO)C(=O)N[C@@H](CCCNC(=N)N)C(=O)N[C@H](C(=O)N[C@@H](CO)C(=O)N[C@@H](CO)C(=O)N[C@@H](CCCNC(=N)N)C(=O)N[C@@H](CCCCN)C(=O)N[C@@H](CCC(=O)O)C(=O)N[C@@H](CO)C(=O)N[C@@H](CO)C(=O)N[C@@H](CCCCN)C(=O)N1CCC[C@H]1C(=O)N1CCC[C@H]1C(=O)N[C@@H](C)C(=O)N[C@@H](CCCCN)C(=O)N[C@@H](CC(C)C)C(=O)N[C@@H](CO)C(=O)N1CCC[C@H]1C(=O)N[C@@H](CCCNC(=N)N)C(N)=O)C(C)C [Compound 45] (H-PSS(Octyl)FLSPEHSRVSSRKESSKPPAKLSPR-NH2) | 0.38 ± 0.13 | –
CCCCCCCCOC[C@H](NC(=O)[C@H](CO)NC(=O)[C@@H]1CCCN1)C(=O)N[C@@H](Cc1ccccc1)C(=O)N[C@@H](CC(C)C)C(=O)N[C@@H](CO)C(=O)N1CCC[C@H]1C(=O)N[C@@H](CCC(=O)O)C(=O)N[C@@H](Cc1c[nH]cn1)C(=O)N[C@@H](CO)C(=O)N[C@@H](CCCNC(=N)N)C(=O)N[C@H](C(=O)N[C@@H](CO)C(=O)N[C@@H](CO)C(=O)N[C@@H](CCCNC(=N)N)C(=O)N[C@@H](CCCCN)C(=O)N[C@@H](CCC(=O)O)C(=O)N[C@@H](CO)C(=O)N[C@@H](CCCCN)C(=O)N[C@@H](CO)C(=O)N1CCC[C@H]1C(=O)N1CCC[C@H]1C(=O)N[C@@H](C)C(=O)N[C@@H](CCCCN)C(=O)N[C@@H](CC(C)C)C(=O)N[C@@H](CO)C(=O)N1CCC[C@H]1C(=O)N[C@@H](CCCNC(=N)N)C(N)=O)C(C)C [Compound 46] (H-PSS(Octyl)FLSPEHSRVSSRKESKSPPAKLSPR-NH2) | 1.68 ± 0.2 | –
CCCCCCCCOC[C@H](NC(=O)[C@H](CO)NC(=O)[C@@H]1CCCN1)C(=O)N[C@@H](Cc1ccccc1)C(=O)N[C@@H](CC(C)C)C(=O)N[C@@H](CO)C(=O)N1CCC[C@H]1C(=O)N[C@@H](CCC(=O)O)C(=O)N[C@@H](Cc1c[nH]cn1)C(=O)N[C@@H](CO)C(=O)N[C@@H](CCCNC(=N)N)C(=O)N[C@H](C(=O)N[C@@H](CO)C(=O)N[C@@H](CO)C(=O)N[C@@H](CCCNC(=N)N)C(=O)N[C@@H](CCCCN)C(=O)N[C@@H](CCC(=O)O)C(=O)N[C@@H](CO)C(=O)N[C@@H](CO)C(=O)N[C@@H](CO)C(=O)N1CCC[C@H]1C(=O)N1CCC[C@H]1C(=O)N[C@@H](C)C(=O)N[C@@H](CCCCN)C(=O)N[C@@H](CC(C)C)C(=O)N[C@@H](CO)C(=O)N1CCC[C@H]1C(=O)N[C@@H](CCCNC(=N)N)C(N)=O)C(C)C [Compound 47] (H-PSS(Octyl)FLSPEHSRVSSRKESSSPPAKLSPR-NH2) | 1.55 ± 0.16 | –
CCCCCCCCOC[C@H](NC(=O)[C@H](CO)NC(=O)[C@@H]1CCCN1)C(=O)N[C@@H](Cc1ccccc1)C(=O)N[C@@H](CC(C)C)C(=O)N[C@@H](CO)C(=O)N1CCC[C@H]1C(=O)N[C@@H](CCC(=O)O)C(=O)N[C@@H](Cc1c[nH]cn1)C(=O)N[C@@H](CO)C(=O)N[C@@H](CCCNC(=N)N)C(=O)N1CCC[C@H]1C(=O)N[C@@H](CO)C(=O)N[C@@H](CO)C(=O)N[C@@H](CCCNC(=N)N)C(N)=O [Compound 48] (H-PSS(Octyl)FLSPEHSRPSSR-NH2) | 0 ± 0 | –
CCCCCCCCOC[C@H](NC(=O)[C@H](CO)NC(=O)[C@@H]1CCCN1)C(=O)N[C@@H](Cc1ccccc1)C(=O)N[C@@H](CC(C)C)C(=O)N[C@@H](CO)C(=O)N1CCC[C@H]1C(=O)N[C@@H](CCC(=O)O)C(=O)N[C@@H](Cc1c[nH]cn1)C(=O)N[C@@H](CO)C(=O)N[C@@H](CCCNC(=N)N)C(=O)N[C@H](C(=O)N[C@@H](CO)C(=O)N[C@@H](CO)C(=O)N[C@@H](CCCNC(=N)N)C(=O)N1CCC[C@H]1C(=O)N[C@@H](CCC(=O)O)C(=O)N[C@@H](CO)C(=O)N[C@@H](CO)C(=O)N[C@@H](CO)C(=O)N1CCC[C@H]1C(=O)N1CCC[C@H]1C(=O)N[C@@H](C)C(=O)N[C@@H](CCCCN)C(=O)N[C@@H](CC(C)C)C(=O)N[C@@H](CO)C(=O)N1CCC[C@H]1C(=O)N[C@@H](CCCNC(=N)N)C(N)=O)C(C)C [Compound 49] (H-PSS(Octyl)FLSPEHSRVSSRPESSSPPAKLSPR-NH2) | 0.6 ± 0.09 | –
CCCCCCCCOC[C@H](NC(=O)[C@H](CO)NC(=O)[C@@H]1CCCN1)C(=O)N[C@@H](Cc1ccccc1)C(=O)N[C@@H](CC(C)C)C(=O)N[C@@H](CO)C(=O)N1CCC[C@H]1C(=O)N[C@@H](CCC(=O)O)C(=O)N[C@@H](Cc1c[nH]cn1)C(=O)N[C@@H](CO)C(=O)N[C@@H](CCCNC(=N)N)C(=O)N1CCC[C@H]1C(=O)N[C@@H](CO)C(=O)N[C@@H](CO)C(=O)N[C@@H](CCCNC(=N)N)C(=O)N1CCC[C@H]1C(=O)N[C@@H](CCC(=O)O)C(=O)N[C@@H](CO)C(=O)N[C@@H](CO)C(=O)N[C@@H](CO)C(=O)N1CCC[C@H]1C(=O)N1CCC[C@H]1C(=O)N[C@@H](C)C(=O)N[C@@H](CCCCN)C(=O)N[C@@H](CC(C)C)C(=O)N[C@@H](CO)C(=O)N1CCC[C@H]1C(=O)N[C@@H](CCCNC(=N)N)C(N)=O [Compound 50] (H-PSS(Octyl)FLSPEHSRPSSRPESSSPPAKLSPR-NH2) | 0.19 ± 0.05 | –
